Like-named read-outs stand apart in the source and are kept apart here.
Key:
CRM1 substrate RanBP1 = assay: Nuclear export block (RanBP1 localization, recovery after compound removal); format: cell-based; settings: recovery of cytoplasmic RanBP1 localization after compound washout (typically 1 h exposure; 8, 24 or 48 h recovery)
Protocol: The nuclear export blocking capability of compounds of this invention was evaluated as follows:
1-5×10^4 cells were seeded onto 12 mm glass coverslips or wells of a chamber slide (for example, Lab-Tek #177445). Cells were grown overnight at 37° C. to allow cells to attach to the surface. Media was removed and replaced with media containing the desired test compound and incubated the required time period (typically 1 h). For recovery experiments, cells were washed with PBS or media and incubated in media without test compound for the desired recovery periods (typically 8, 24, or 48 h). The media was removed and coverslips/wells were washed with PBS pH 7.4 for 1 minute. Coverslips or slides were fixed with 3.7% formaldehyde in PBS for 20 minutes at room temperature, washed three times in PBS, and stained for the CRM1 substrate RanBP1.
Coverslips or chamber slides were permeabilized and blocked in 10% donkey serum, 0.1% Triton X-100 in PBS for 30 minutes at room temperature. Primary antibodies were diluted in PBS and incubated for 1 hour at room temperature: goat-anti-RanBP1 (Santa Cruz Biotechnology, sc-1160; 1:50 dilution) and mouse-anti-tubulin (Sigma, T9026; 1:400). Cells were washed 3×5 minutes in PBS. Secondary antibodies donkey-anti-goat Cy3 (705-165-147, Jackson Immunoresearch) and donkey anti-mouse FITC (715-095-150, Jackson Immunoresearch) were diluted 1:200 in PBS and incubated for 1 hour at room temperature. Secondary antibody was removed and cells were stained with a nuclear dye such as DAPI (Sigma, D8417; 2.5 ug/mL in PBS) or Hoechst 33342 (Molecular Probes, H3570; 100 ng/mL in PBS) for 5 minutes at room temperature. Cells were washed 3×5 minutes in PBS and coverslips were mounted with FluorSave (EMD Biosciences, 80058-108). Nuclear (N) or cytoplasmic (C) localization of RanBP1 was examined using a 40× objective on a Zeiss Axiovert 200 inverted epiflourescence microscope. Nuclear localization (N>C) was confirmed after the initial drugging period.

HCT-116 = assay: Inhibition of tumor cell proliferation, HCT-116; format: cell-based, human; settings: Homo sapiens, read-out: Cancer Cell Line (IC50, nM) HCT-116
Protocol: (§1) The biological activity of compounds of this invention was evaluated by measuring their inhibitory effect on the proliferation of various tumor cell lines. HCT-116 is a human colon cancer cell line. LNCap is a human prostate cancer cell line. SiHa is an HPV-16 positive human cervical cancer line.

LNCap = assay: Inhibition of tumor cell proliferation, LNCap; format: cell-based, human; settings: Homo sapiens, LNCaP, read-out: Cancer Cell Line (IC50, nM) LNCap
Protocol: as §1

SiHa = assay: Inhibition of tumor cell proliferation, SiHa; format: cell-based, human; settings: Homo sapiens, SiHa, read-out: Cancer Cell Line (IC50, nM) SiHa
Protocol: as §1

22Rv1 = assay: Inhibition of tumor cell proliferation, 22Rv1; format: cell-based; settings: Homo sapiens
Protocol: as §1
(§2) Table D presents additional data for the activity of compounds A-1 and A-4 against various cell lines. In some instances, comparative data against leptomycin B (LMB) and/or compound VI (Dong et al., US 2005/0272727 A1 (2005) is also provided.
(§3) The additional cell lines tested against represent a variety of different cancers: bladder cancer (UM-UC-3), breast cancer (BT474, HCC1937, MDA-MB468, NCI-ADR), CNS cancer (U87MG (glioma), SKNSH (neuroblastoma)), colon cancer (LoVo, LS411N, LS513), head and neck cancer (CAL-27, FaDu), leukemia (CCRF-CEM, MOLT-4), liver cancer (HepG2), lung cancer (A549, NCI-H23, NCI-H358), melanoma (Colo829), ovarian cancer (OVCAR-4), pancreatic cancer (BxPC-3, Mia-PaCa2), prostate cancer (22Rv1, PC-3), and renal cancer (A-498, Caki-1).

A-498 = assay: Inhibition of tumor cell proliferation, A-498; format: cell-based; settings: Homo sapiens, A498; exposure time 1 h
Protocol: as §1, §2, §3

BT474 = assay: Inhibition of tumor cell proliferation, BT474; format: cell-based; settings: Homo sapiens, BT-474
Protocol: as §1, §2, §3

CAL-27 = assay: Inhibition of tumor cell proliferation, CAL-27; format: cell-based; settings: Homo sapiens
Protocol: as §1, §2, §3

Colo829 = assay: Inhibition of tumor cell proliferation, Colo829; format: cell-based; settings: Homo sapiens, COLO-829
Protocol: as §1, §2, §3

FaDu = assay: Inhibition of tumor cell proliferation, FaDu; format: cell-based; settings: Homo sapiens
Protocol: as §1, §2, §3

HCC1937 = assay: Inhibition of tumor cell proliferation, HCC1937; format: cell-based; settings: Homo sapiens
Protocol: as §1, §2, §3

HepG2 = assay: Inhibition of tumor cell proliferation, HepG2; format: cell-based; settings: Homo sapiens
Protocol: as §1, §2, §3

LS411N = assay: Inhibition of tumor cell proliferation, LS411N; format: cell-based; settings: Homo sapiens, LS-411N
Protocol: as §1, §2, §3

LS513 = assay: Inhibition of tumor cell proliferation, LS513; format: cell-based; settings: Homo sapiens, LS-513
Protocol: as §1, §2, §3

Mia-PaCa2 = assay: Inhibition of tumor cell proliferation, Mia-PaCa2; format: cell-based; settings: Homo sapiens, MIA PaCa-2
Protocol: as §1, §2, §3

NCI-ADR = assay: Inhibition of tumor cell proliferation, NCI-ADR; format: cell-based; settings: Homo sapiens, NCI/ADR-RES, read-out: IC50, nM, NCI-ADR
Protocol: as §1, §2, §3

NCI-H23 = assay: Inhibition of tumor cell proliferation, NCI-H23; format: cell-based; settings: Homo sapiens
Protocol: as §1, §2, §3

NCI-H358 = assay: Inhibition of tumor cell proliferation, NCI-H358; format: cell-based; settings: Homo sapiens
Protocol: as §1, §2, §3

OVCAR-4 = assay: Inhibition of tumor cell proliferation, OVCAR-4; format: cell-based; settings: Homo sapiens
Protocol: as §1, §2, §3

U87MG = assay: Inhibition of tumor cell proliferation, U87MG; format: cell-based; settings: Homo sapiens, U-87 MG
Protocol: as §1, §2, §3

UM-UC-3 = assay: Inhibition of tumor cell proliferation, UM-UC-3; format: cell-based; settings: Homo sapiens, read-out: IC50, nM, UM-UC-3
Protocol: as §1, §2, §3

A549 = assay: Inhibition of tumor cell proliferation, A549; format: cell-based; settings: Homo sapiens, read-out: IC50, nM, A549
Protocol: as §1, §2, §3

SKNSH = assay: Inhibition of tumor cell proliferation, SKNSH; format: cell-based; settings: Homo sapiens, SK-N-SH, read-out: IC50, nM, SKNSH
Protocol: as §1, §2, §3

Caki-1 = assay: Inhibition of tumor cell proliferation, Caki-1; format: cell-based; settings: Homo sapiens, exposure time 1 h
Protocol: as §1, §2, §3

CCRF-CEM = assay: Inhibition of tumor cell proliferation, CCRF-CEM; format: cell-based; settings: Homo sapiens, exposure time 72 h
Protocol: as §1, §2, §3

LoVo = assay: Inhibition of tumor cell proliferation, LoVo; format: cell-based; settings: Homo sapiens, exposure time 1 h
Protocol: as §1, §2, §3

MOLT-4 = assay: Inhibition of tumor cell proliferation, MOLT-4; format: cell-based; settings: Homo sapiens, exposure time 72 h
Protocol: as §1, §2, §3

PC-3 = assay: Inhibition of tumor cell proliferation, PC-3; format: cell-based; settings: Homo sapiens
Protocol: as §1, §2, §3

CC(=C/[C@H](C)C/C=C/C(C)=C/[C@@H](C)C(=O)[C@@H](C)[C@H](OC(N)=O)[C@@H](C)C/C(C)=C/COC(N)=O)/C=C/[C@H]1CC=CC(=O)O1 [Compound A-4]
Nuclear Export Block (CRM1 substrate RanBP1): Moderate recovery | IC50 (HCT-116; HCT-116, 1 h): 13.1 nM | IC50 (HCT-116; HCT-116, 72 h): 2.2 nM | IC50 (LNCap; 1 h): 6.6 nM | IC50 (LNCap; 72 h): 1.5 nM | IC50 (SiHa; 1 h): 3.6 nM | IC50 (SiHa; 72 h): 0.8 nM | IC50 (22Rv1; exposure time 1 h): 4.6 nM | IC50 (22Rv1; exposure time 72 h): 0.7 nM | IC50 (A-498): 16 nM | IC50 (BT474; exposure time 1 h): 3.8 nM | IC50 (BT474; exposure time 72 h): 2.3 nM | IC50 (CAL-27; exposure time 1 h): 2.8 nM | IC50 (CAL-27; exposure time 72 h): 0.5 nM | IC50 (Colo829; exposure time 1 h): 4.6 nM | IC50 (Colo829; exposure time 72 h): 0.9 nM | IC50 (FaDu; exposure time 1 h): 27.9 nM | IC50 (FaDu; exposure time 72 h): 1.6 nM | IC50 (HCC1937; exposure time 1 h): 42.3 nM | IC50 (HCC1937; exposure time 72 h): 7.3 nM | IC50 (HepG2; exposure time 1 h): 7.8 nM | IC50 (HepG2; exposure time 72 h): 0.8 nM | IC50 (LS411N; exposure time 1 h): 9.4 nM | IC50 (LS411N; exposure time 72 h): 1.6 nM | IC50 (LS513; exposure time 1 h): 6.3 nM | IC50 (LS513; exposure time 72 h): 1 nM | IC50 (Mia-PaCa2; exposure time 1 h): 49.7 nM | IC50 (Mia-PaCa2; exposure time 72 h): 10.8 nM | IC50 (NCI-ADR; 1 h): 771 nM | IC50 (NCI-ADR; 72 h): 71.3 nM | IC50 (NCI-H23; exposure time 1 h): 8.5 nM | IC50 (NCI-H23; exposure time 72 h): 1.3 nM | IC50 (NCI-H358; exposure time 1 h): 5.6 nM | IC50 (NCI-H358; exposure time 72 h): 0.7 nM | IC50 (OVCAR-4; exposure time 1 h): 80 nM | IC50 (OVCAR-4; exposure time 72 h): 8.8 nM | IC50 (U87MG; exposure time 1 h): 25.5 nM | IC50 (U87MG; exposure time 72 h): 1.5 nM | IC50 (UM-UC-3; UMUC3, 1 h): 7 nM | IC50 (UM-UC-3; UMUC3, 72 h): 1.4 nM

CCC(=C/[C@H](C)C/C=C/C(C)=C/[C@@H](C)C(=O)[C@@H](C)[C@H](O)[C@@H](C)C/C(C)=C/C(=O)O)/C=C/[C@@H]1OC(=O)C=C[C@@H]1C [Leptomycin B, reference compound]
Nuclear Export Block (CRM1 substrate RanBP1): Slow recovery | IC50 (HCT-116; HCT-116, exposure time to compound 1 h): 4.3 nM | IC50 (HCT-116; HCT-116, exposure time to compound 72 h): 0.32 nM | IC50 (LNCap; exposure time to compound 1 h): 3.3 nM | IC50 (LNCap; exposure time to compound 72 h): 0.3 nM | IC50 (SiHa; exposure time to compound 1 h): 2.1 nM | IC50 (SiHa; exposure time to compound 72 h): 0.4 nM | IC50 (A549; A549, exposure time 72 h): 0.55 nM | IC50 (NCI-ADR; exposure time 1 h): 33.8 nM | IC50 (UM-UC-3; UMUC3, exposure time 72 h): 0.3 nM | IC50 (SKNSH; exposure time 1 h): 4.1 nM | IC50 (SKNSH; exposure time 72 h): 0.4 nM

CCC(=C/[C@H](C)C/C=C/C(C)=C/[C@@H](C)C(=O)[C@@H](C)[C@H](O)[C@@H](C)C/C(C)=C/C(=O)NCCc1cccnc1)/C=C/[C@@H]1OC(=O)C=C[C@@H]1C [VI, reference compound]
IC50 (22Rv1; exposure time 1 h): 1.8 nM | IC50 (22Rv1; exposure time 72 h): 0.3 nM | IC50 (A-498): 4.8 nM | IC50 (A549; A549, 1 h): 3.8 nM | IC50 (A549; A549, 72 h): 3 nM | IC50 (BT474; exposure time 1 h): 2.1 nM | IC50 (BT474; exposure time 72 h): 0.8 nM | IC50 (Caki-1): 4.5 nM | IC50 (CAL-27; exposure time 1 h): 0.7 nM | IC50 (CAL-27; exposure time 72 h): 0.3 nM | IC50 (CCRF-CEM): 0.8 nM | IC50 (Colo829; exposure time 1 h): 2.1 nM | IC50 (Colo829; exposure time 72 h): 0.3 nM | IC50 (FaDu; exposure time 1 h): 7.3 nM | IC50 (FaDu; exposure time 72 h): 1 nM | IC50 (HCC1937; exposure time 1 h): 5.7 nM | IC50 (HCC1937; exposure time 72 h): 4.3 nM | IC50 (HepG2; exposure time 1 h): 3.2 nM | IC50 (HepG2; exposure time 72 h): 0.7 nM | IC50 (LoVo): 2.5 nM | IC50 (LS411N; exposure time 1 h): 2.9 nM | IC50 (LS411N; exposure time 72 h): 0.5 nM | IC50 (LS513; exposure time 1 h): 5.5 nM | IC50 (LS513; exposure time 72 h): 0.9 nM | IC50 (Mia-PaCa2; exposure time 1 h): 5 nM | IC50 (Mia-PaCa2; exposure time 72 h): 1.7 nM | IC50 (MOLT-4): 2.9 nM | IC50 (NCI-ADR; 1 h): 77.3 nM | IC50 (NCI-ADR; 72 h): 13 nM | IC50 (NCI-H23; exposure time 1 h): 2.6 nM | IC50 (NCI-H23; exposure time 72 h): 0.4 nM | IC50 (NCI-H358; exposure time 1 h): 1.6 nM | IC50 (NCI-H358; exposure time 72 h): 0.4 nM | IC50 (OVCAR-4; exposure time 1 h): 6.7 nM | IC50 (OVCAR-4; exposure time 72 h): 1.5 nM | IC50 (PC-3; exposure time 1 h): 3.3 nM | IC50 (PC-3; exposure time 72 h): 0.7 nM | IC50 (U87MG; exposure time 1 h): 5 nM | IC50 (U87MG; exposure time 72 h): 0.6 nM | IC50 (UM-UC-3; UMUC3, 1 h): 2.6 nM | IC50 (UM-UC-3; UMUC3, 72 h): 0.3 nM | IC50 (SKNSH; 1 h): 2.2 nM | IC50 (SKNSH; 72 h): 0.5 nM
